Results published in ChEMBL document CHEMBL1201862, “PubChem BioAssay data set” (2004).
Active and inactive are the calls of the source.

Assays:
[1] = ZM109 Env clade C HIV-1 fusion inhibitors, dose response, HeLa effector, CEM target cells, luciferase, cherry-pick (AID 652058); assay type: functional, cell-based
[2] = off-target signal loss in HeLa-CEM21 co-culture – HeLa F-luc CTL cells, cherry-picked, counter-screen for HIV-1 Env fusion inhibitor project, dose response (AID 652040); assay type: functional, cell-based;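 also: potency for signal decrease marking cytotoxic or nonspecific inhibition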
[3] = inhibitors of HIV Env-driven cell fusion, dose response, cherry-pick (AID 652057); assay type: functional, cell-based
[4] = CEM21 lymphoblast cell cytotoxicity, dose response, cytotoxicity control for viral fusion inhibitor project, CellTiter-Glo luminescence, cherry-picked (AID 652042); assay type: functional, cell-based;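 also: potency for signal decrease meaning cytotoxicity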
[5] = inhibitors of clade B AD8 Env fusion, dose response, cell-based, cherry-pick (AID 652062); assay type: functional;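 also: luciferase signal from cell-cell fusion driven by HIV-1 clade B AD8 Env; potency is for inhibitors of fusion seen as a drop in luminescence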
[6] = target: T1, Probable nicotinate-nucleotide adenylyltransferase (Staphylococcus aureus (strain N315), UniProt P65502); assay type: functional, Staphylococcus aureus subsp. aureus N315;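 as to IC50 Mean: confirmatory dose-response retesting of NadD inhibitor hits first found in an ultra-high-throughput screen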
[7] = target: T1, Probable nicotinate-nucleotide adenylyltransferase; assay type: functional, Staphylococcus aureus subsp. aureus N315; settings: read-out: IC50_Mean
[8] = target: T2, Voltage-gated N-type calcium channel alpha-1B subunit/Amyloid beta A4 precursor protein-binding family A member 1 (Homo sapiens, UniProt Q00975+Q02410); assay type: protein assay
[9] = target: T3, Low molecular weight phosphotyrosine protein phosphatase (Homo sapiens, UniProt P24666); assay type: functional; settings: read-out: IC50_Mean
T3 sequence (P24666 whole entry): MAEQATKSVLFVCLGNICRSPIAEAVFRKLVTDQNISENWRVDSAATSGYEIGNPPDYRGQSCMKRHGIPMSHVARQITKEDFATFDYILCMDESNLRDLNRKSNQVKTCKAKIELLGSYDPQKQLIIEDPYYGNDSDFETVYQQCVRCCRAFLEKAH

HEK293 [10] = assay: inhibitors of LMP1-driven NF-kB reporter, dose response, cell-based, HEK293, luciferase, cherry-pick (AID 588343); assay type: functional; settings: Homo sapiens
[11] = target: T2, Voltage-gated N-type calcium channel alpha-1B subunit/Amyloid beta A4 precursor protein-binding family A member 1; assay type: protein assay; remark: listed apart in the source
[12] = target: T4, Carboxy-terminal domain RNA polymerase II polypeptide A small phosphatase 1 (Homo sapiens, UniProt Q9GZU7); assay: inhibitors of CTDSP1, concentration-response testing, biochemical assay, absorbance-based, actives from ultra-high-throughput screening (AID 540297); assay type: functional
T4 sequence (Q9GZU7 whole entry): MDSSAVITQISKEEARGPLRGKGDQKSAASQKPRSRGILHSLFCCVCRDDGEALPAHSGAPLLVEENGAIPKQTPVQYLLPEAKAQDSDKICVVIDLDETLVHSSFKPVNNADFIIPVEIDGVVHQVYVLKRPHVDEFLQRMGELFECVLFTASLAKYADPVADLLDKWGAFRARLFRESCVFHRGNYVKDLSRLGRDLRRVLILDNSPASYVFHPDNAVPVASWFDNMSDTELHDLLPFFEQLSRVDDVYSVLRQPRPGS

[13] = target: Fructose-bisphosphate aldolase (Mycobacterium tuberculosis, UniProt P9WQA3); assay: Fluorescence-based biochemical high throughput dose response assay for inhibitors of the fructose-bisphosphate aldolase (FBA) of M. tuberculosis.; assay type: functional
[14] = target: T5, Rac GTPase-activating protein 1 (Homo sapiens, UniProt Q9H0H5); assay: MgcRacGAP GTPase-activating activity inhibitors, confirmation, biochemical, ADP Hunter fluorescence, primary and confirmatory (AID 624330); assay type: functional
T5 sequence (Q9H0H5 whole entry): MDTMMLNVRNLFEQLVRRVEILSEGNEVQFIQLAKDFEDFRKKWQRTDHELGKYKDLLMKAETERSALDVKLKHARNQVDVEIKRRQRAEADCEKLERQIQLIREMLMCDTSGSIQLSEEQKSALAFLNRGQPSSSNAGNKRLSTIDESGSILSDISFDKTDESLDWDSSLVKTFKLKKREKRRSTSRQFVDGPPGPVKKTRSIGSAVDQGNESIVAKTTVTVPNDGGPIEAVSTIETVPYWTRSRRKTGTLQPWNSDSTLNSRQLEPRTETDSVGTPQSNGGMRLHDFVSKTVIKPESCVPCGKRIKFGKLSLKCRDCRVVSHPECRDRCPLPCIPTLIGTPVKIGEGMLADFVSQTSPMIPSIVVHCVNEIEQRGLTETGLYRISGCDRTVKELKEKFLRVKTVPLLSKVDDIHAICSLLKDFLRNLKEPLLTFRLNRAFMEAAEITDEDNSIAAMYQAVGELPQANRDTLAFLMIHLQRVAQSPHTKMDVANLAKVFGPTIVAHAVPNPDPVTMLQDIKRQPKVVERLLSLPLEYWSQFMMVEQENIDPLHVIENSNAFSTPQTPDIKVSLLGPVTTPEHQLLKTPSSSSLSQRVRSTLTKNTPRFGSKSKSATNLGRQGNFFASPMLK

[15] = HeLa cell cytotoxicity, dose response, cytotoxicity control for MgcRacGAP inhibitor project (AID 624300); assay type: functional
[16] = Fluorescence-based cell-based high throughput dose response assay for inhibitors of the interaction of nucleotide-binding oligomerization domain containing 2 (NOD2) and the receptor-interacting serine-threonine kinase 2 (RIPK2).; assay type: functional; settings: Homo sapiens
[17] = target: Induced myeloid leukemia cell differentiation protein Mcl-1 (Homo sapiens, UniProt Q07820); assay type: functional
[18] = inhibitors of intracellular T. cruzi replication, confirmation, NIH3T3 host cells, beta-gal luminescence (AID 2044); assay type: functional, cell-based;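 also: intracellular parasites grown in NIH/3T3 mouse fibroblasts as host cells; luminescent beta-galactosidase reporter signal from transgenic T. cruzi replicating inside host cells; inhibitors lower the luminescence signal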
[19] = C. albicans growth with fluconazole, confirmation, fluorescence, retest (AID 2467); assay type: functional, cell-based
[20] = target: T6, Nuclear receptor subfamily 0 group B member 1 (Homo sapiens, UniProt P51843); assay type: functional, cell-based;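 also: HEK293T cells transfected with SF-1 and DAX-1 plus StAR promoter luciferase reporter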
T6 sequence (P51843 whole entry): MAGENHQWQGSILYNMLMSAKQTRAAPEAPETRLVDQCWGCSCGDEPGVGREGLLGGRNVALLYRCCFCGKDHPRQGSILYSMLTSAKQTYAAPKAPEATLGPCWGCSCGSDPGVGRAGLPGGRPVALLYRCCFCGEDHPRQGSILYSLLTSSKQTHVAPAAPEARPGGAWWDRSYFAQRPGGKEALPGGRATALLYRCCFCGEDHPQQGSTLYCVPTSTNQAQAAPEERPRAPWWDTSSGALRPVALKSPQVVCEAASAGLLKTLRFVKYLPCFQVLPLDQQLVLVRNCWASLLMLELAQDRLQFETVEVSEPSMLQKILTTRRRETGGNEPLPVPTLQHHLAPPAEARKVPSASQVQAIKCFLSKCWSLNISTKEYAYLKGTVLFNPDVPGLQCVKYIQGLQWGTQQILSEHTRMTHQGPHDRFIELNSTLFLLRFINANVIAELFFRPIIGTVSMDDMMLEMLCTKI

[21] = target: Photoreceptor-specific nuclear receptor (Homo sapiens, UniProt Q9Y5X4); assay type: functional, cell-based;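 also: CHO-S cells with Gal4-NCOR and VP16-NR2E3 two-hybrid luciferase reporter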
HEK293 [22] = assay: cells; settings: Homo sapiens
cells = assay type: functional, cell-based
[23] = cytotoxicity toward NIH3T3 fibroblasts, dose response, counter-screen, cell-based, ATP luminescence, mouse fibroblasts (AID 2010); assay type: functional;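 also: cells exposed to compound for about 90 hours before reading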
HEK293 [24] = assay: cells; settings: Homo sapiens; remark: listed apart in the source
[25] = NIH-3T3 fibroblast cytotoxicity, dose response, cytotoxicity control, cell-based, fluorescence, Alamar Blue, secondary assay (AID 2327); assay type: functional;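 also: NIH-3T3 mouse fibroblasts cultured with fluconazole at 8 µg/mL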

T1 sequence (P65502 whole entry): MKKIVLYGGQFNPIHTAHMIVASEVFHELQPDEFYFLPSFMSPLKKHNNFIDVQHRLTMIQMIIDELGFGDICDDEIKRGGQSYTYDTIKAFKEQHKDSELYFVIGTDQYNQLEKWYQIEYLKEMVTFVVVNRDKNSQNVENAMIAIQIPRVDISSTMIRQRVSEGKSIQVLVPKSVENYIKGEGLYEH
T2 sequence (Q00975 whole entry): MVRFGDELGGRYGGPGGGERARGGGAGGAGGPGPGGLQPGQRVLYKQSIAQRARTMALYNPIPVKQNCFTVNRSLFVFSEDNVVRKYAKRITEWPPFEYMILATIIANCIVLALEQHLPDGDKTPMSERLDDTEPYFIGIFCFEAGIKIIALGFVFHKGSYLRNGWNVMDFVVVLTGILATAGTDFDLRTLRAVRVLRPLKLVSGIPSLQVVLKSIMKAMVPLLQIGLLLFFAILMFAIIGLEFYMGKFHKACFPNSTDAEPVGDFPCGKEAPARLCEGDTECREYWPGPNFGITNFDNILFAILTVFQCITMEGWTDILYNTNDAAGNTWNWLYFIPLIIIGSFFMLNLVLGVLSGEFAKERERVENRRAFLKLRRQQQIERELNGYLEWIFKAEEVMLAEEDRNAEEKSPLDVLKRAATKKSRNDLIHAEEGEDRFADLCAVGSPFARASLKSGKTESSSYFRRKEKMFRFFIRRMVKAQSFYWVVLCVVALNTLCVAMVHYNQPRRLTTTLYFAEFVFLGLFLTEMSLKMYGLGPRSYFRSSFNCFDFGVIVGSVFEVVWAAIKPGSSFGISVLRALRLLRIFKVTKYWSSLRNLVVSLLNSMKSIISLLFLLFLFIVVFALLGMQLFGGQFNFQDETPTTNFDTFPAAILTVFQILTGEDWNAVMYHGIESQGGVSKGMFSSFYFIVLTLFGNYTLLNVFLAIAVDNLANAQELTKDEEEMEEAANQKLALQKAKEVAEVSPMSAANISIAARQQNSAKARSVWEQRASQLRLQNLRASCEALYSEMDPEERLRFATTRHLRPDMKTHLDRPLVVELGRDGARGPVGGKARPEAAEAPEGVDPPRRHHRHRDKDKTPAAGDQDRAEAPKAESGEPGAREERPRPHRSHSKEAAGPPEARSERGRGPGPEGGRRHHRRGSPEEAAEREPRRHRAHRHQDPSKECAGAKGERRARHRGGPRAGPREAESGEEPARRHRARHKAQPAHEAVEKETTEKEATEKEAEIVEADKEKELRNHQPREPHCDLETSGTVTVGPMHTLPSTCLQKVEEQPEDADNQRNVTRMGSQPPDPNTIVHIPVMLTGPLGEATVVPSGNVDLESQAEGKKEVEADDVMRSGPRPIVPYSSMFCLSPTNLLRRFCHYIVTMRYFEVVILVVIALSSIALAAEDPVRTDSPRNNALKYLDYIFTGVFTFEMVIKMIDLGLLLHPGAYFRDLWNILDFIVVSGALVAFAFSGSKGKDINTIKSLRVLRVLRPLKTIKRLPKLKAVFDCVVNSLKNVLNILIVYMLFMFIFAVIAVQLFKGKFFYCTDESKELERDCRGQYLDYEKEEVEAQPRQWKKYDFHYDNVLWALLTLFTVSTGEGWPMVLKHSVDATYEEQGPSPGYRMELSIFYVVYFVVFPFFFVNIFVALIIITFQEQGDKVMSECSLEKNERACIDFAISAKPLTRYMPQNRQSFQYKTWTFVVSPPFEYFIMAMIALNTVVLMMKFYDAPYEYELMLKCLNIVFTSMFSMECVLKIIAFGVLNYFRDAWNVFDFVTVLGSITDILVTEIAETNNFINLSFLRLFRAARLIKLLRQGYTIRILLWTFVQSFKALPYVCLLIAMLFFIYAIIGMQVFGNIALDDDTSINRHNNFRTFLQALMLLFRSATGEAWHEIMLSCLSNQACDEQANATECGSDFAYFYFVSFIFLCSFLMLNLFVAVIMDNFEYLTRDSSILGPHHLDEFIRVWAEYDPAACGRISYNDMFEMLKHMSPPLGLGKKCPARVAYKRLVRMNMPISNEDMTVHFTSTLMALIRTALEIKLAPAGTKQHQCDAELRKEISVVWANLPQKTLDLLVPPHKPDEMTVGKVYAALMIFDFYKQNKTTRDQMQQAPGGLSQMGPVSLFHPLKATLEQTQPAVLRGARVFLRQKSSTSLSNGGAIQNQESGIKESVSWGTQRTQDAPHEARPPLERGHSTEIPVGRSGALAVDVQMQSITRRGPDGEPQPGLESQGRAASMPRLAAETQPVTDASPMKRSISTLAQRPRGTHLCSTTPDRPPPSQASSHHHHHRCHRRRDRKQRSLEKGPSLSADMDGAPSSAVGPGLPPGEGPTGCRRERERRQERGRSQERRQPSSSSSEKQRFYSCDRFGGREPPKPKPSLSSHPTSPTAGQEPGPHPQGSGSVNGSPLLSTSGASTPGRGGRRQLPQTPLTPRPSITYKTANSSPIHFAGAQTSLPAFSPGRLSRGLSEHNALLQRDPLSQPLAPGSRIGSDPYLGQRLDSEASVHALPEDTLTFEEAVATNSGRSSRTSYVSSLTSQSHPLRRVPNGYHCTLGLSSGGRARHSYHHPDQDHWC
T2 sequence (Q02410 whole entry): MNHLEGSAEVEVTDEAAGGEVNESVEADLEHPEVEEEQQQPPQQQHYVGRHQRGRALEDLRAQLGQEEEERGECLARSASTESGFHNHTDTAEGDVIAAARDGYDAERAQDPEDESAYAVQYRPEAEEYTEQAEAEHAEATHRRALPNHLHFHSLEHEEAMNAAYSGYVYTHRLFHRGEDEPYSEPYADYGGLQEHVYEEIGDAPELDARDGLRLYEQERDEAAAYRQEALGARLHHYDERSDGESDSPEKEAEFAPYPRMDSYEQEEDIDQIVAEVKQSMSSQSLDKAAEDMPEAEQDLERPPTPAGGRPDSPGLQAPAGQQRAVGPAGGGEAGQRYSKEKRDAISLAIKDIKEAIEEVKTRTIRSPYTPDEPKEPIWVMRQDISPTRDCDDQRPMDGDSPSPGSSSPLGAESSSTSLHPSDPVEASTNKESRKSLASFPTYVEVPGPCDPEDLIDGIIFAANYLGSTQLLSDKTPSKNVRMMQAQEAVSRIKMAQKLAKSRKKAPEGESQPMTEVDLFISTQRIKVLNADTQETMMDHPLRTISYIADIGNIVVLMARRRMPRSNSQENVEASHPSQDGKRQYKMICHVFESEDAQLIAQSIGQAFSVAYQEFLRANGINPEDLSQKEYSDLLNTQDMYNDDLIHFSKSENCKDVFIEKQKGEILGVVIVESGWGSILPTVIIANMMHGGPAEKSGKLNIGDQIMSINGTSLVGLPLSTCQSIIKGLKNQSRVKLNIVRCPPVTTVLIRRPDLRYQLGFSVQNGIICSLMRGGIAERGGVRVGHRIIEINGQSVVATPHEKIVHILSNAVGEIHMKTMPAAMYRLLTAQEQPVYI
Chain of Fructose-bisphosphate aldolase (P9WQA3 whole entry): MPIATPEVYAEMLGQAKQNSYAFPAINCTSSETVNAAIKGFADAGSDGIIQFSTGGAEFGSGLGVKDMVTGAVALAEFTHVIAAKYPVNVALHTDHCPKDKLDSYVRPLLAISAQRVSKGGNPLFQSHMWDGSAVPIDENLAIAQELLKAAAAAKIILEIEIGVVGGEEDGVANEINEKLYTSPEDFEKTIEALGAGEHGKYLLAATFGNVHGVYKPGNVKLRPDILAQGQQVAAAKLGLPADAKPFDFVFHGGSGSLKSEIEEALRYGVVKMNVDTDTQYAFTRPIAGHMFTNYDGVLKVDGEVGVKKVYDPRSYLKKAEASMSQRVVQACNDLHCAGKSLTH
Chain of Induced myeloid leukemia cell differentiation protein Mcl-1 (Q07820 whole entry): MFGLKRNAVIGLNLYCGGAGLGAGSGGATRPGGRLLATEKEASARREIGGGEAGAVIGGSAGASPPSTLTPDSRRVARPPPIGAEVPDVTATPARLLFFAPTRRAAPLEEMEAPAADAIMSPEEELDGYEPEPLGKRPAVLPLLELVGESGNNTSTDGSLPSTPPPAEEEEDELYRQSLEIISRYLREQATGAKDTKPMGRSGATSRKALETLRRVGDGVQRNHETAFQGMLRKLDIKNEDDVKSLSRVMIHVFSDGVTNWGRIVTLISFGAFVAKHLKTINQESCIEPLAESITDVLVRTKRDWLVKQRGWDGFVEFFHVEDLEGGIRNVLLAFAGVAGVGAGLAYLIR
Chain of Photoreceptor-specific nuclear receptor (Q9Y5X4 whole entry, the tested form may be a part): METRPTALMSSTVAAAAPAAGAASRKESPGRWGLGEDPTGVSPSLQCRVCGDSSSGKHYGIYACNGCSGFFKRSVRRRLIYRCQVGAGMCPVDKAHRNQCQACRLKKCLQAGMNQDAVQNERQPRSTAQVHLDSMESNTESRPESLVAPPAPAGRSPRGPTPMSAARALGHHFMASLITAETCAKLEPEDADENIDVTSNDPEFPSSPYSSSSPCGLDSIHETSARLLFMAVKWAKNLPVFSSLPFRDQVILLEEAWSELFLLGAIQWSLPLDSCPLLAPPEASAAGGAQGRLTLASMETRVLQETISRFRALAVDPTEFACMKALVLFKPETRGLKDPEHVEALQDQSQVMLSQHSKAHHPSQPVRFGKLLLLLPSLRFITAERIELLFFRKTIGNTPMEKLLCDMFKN

With `Cn1c(NCc2c(O)ccc3ccccc23)nc2ccccc21` the AC50 [1] was 22.1 µM (active), the AC50 [2] was 40.6 µM (active) and the AC50 [3] was 15.4 µM (active). The AC50 [4] was 58.1 µM (active) and the AC50 [5] was 28.9 µM (active).
For `Cc1ccccc1C(=O)Nc1cc[n+](-c2nc3ccccc3nc2[N-]S(=O)(=O)c2ccc(F)cc2)cc1`, the IC50 [6] was 5.96 µM (active) and the IC50 [7] was 23.8 µM (active).
In the case of `COc1ccc2cc3c(N)nn(C(=O)c4cccc([N+](=O)[O-])c4)c3nc2c1`, the IC50 [8] is reported as 12.2 µM (active), the IC50 [9] is reported as 19.1 µM (active) and the AC50 (HEK293 [10]) is reported as 3.08 µM (active). The IC50 [11] was > 50 µM (inactive) and the IC50 [12] was 4.35 µM (active).
In the case of `Cc1ccc(-n2nc3ccc(N)cc3n2)cc1C`, the IC50 [13] is reported as 0.895 µM (active).
For `CN(C)CCC(=O)N1C/C(=C/c2ccccc2)C(=O)/C(=C\c2ccccc2)C1`, the IC50 [14] was 167 µM (active), the CC50 [15] was 25 µM (active) and the IC50 [16] was 3.78 µM (active).
With `Cn1c(/C=N/n2cnnc2)nc2ccccc21` the IC50 [13] was 1.54 µM (active).
For `C/C(=N\NC(=O)c1cccc(N/N=C(\C)c2ccco2)c1)c1ccco1`, the IC50 [6] was 10.6 µM (active), the IC50 [17] was 3.19 µM (active) and the IC50 [7] was 14.8 µM (active). For the same compound, the IC50 [12] was 3.17 µM (active).
With `COc1cc2c(O)c3c(c(-c4ccc5c(c4)OCO5)c2cc1OC)C(=O)OC3` [DIPHYLLIN] the EC50 [18] was 1.65 µM (active), the EC50 [19] was 2.59 µM (active) and the IC50 [20] was > 67.6 µM (inactive). For the same compound, the IC50 [21] was 0.962 µM (active), the EC50 (HEK293 [22]) was > 59.7 µM (inactive) and the IC50 (cells) was > 67.6 µM (inactive). For the same compound, the EC50 [23] was > 30 µM (not active), the EC50 (HEK293 [24]) was > 59.7 µM (inactive) and the EC50 [25] was 33.5 µM (active).
